The record followed here is US10064848B2, “Pyridic ketone derivatives, method of preparing same, and pharmaceutical application thereof” (Shanghai Hengrui Pharmaceutical Co., Ltd., priority 2013, dated 2018).

The target in assay [1] is T1, MEK1 (Recombinant Human Protein) (Homo sapiens, UniProt Q02750).
T1 construct: purchased Invitrogen PV3093
Kind of assay: MEK1 kinase inhibition assay (Z'-LYTE Kinase Assay Kit-Ser/Thr 03 Peptide). The assay is classed as biochemical. The settings on record: 4 hours at 37° C, read-out: IC50 for inhibiting MEK kinase (MEK1). On the procedure: MEK1 kinase activity was tested in vitro by the following method.
MEK kinase used in the assay: MEK1 (Recombinant Human Protein, Invitrogen, Catalog No. PV3093).
Kit used in the assay: Z′-LYTE™ Kinase Assay Kit-Ser/Thr 03 Peptide (Invitrogen, Catalog No. PV3176).
The following in vitro assay was used to determine the activity of the compounds of the present invention for inhibiting the […] MEK kinase. The test compound was dissolved in dimethyl sulfoxide to the desired concentration. 1× Buffer A (Invitrogen, Catalog No. PV3189) was prepared, ATP was diluted with 1× Buffer A to obtain 400 μM ATP solution, appropriate amounts of Z′-LYTE™ Ser/Thr 03 Peptide (Invitrogen, Catalog No. PV3200), MEK kinase (MEK1) Enzymes and 1× Buffer A were mixed, and appropriate amounts of Z′-LYTE™ Ser/Thr 03 phosphoPeptide substrate (Invitrogen, Catalog No. PV3215) and 1× Buffer A were formulated into a mixture to be tested. The 4% DMSO solution of the test compound was prepared from 1× buffer and DMSO solution of the test compound. 2.5 μL DMSO solution of the test compound was added to a reaction well, and then 1× Buffer A, 2.5 μL of 400 μM ATP solution, 5 μL of enzyme and substrate mixture were added to become a 10 μL of reaction system. The reaction system was incubated for 4 hours at 37° C., and a mixture was prepared according to Reagent A:Buffer B=1:1024. 5 μL of a mixture of Reagent A (Invitrogen, Catalog No. PV3295) and Buffer B (Invitrogen, Catalog No. P3127) was added to a reaction well, the reaction system was incubated for 60 minutes at 25° C. The fluorescence was read by a NovoStar ELISA with excitation wavelength: 400 nm, and emission wavelength: 445 nm and 520 nm.
The activity of the compounds of the present invention: The above assay was used to determine the biochemical activity of the compounds of the present invention for inhibiting MEK kinase (MEK1).

Assay [2] relates to Colo205 cell. Kind of assay: Proliferation inhibition on Colo205 (CCK8). The note with it: Homo sapiens, COLO 205, Colo205, 72 hours. It counts as cell-based. From the text:
Cell line used in the assay: Colo205 (Cell Bank of the Chinese Academy of Sciences, Catalog No. TCHu102).
The following in vitro cell assay is to determine the activity of the compounds of the present invention for inhibiting the proliferation of human colon cancer cell, and the activity is expressed as IC50. General programs of this kind of assay were as follows: First, the cell line to be tested (purchased from Cell Bank of the Chinese Academy of Sciences) was inoculated in a 96-well culture plate with a suitable cell concentration of 4000 cells/mL medium, and was cultured in a carbon dioxide incubator at 37° C., then grown overnight. The medium was replaced by new medium added with a series of concentrations (10000 nM, 1000 nM, 100 nM, 10 nM, 1 nM, 0.1 nM) of the test compound solutions. The plates were placed back in the incubator, and continuously cultured for 72 hours. After 72 hours, CCK8 (Cell Counting Kit-8, Catalog No.: CK04, purchased from colleagues chemical company) method was used to determine the proliferation inhibition activity of the test compounds. IC50 values were calculated from the inhibition data of the test compounds at a series of different concentrations.
The above assay was used to determine the biochemical activity of the compounds of the present invention.

Assay [3] has as its target T2, CYP1A2 (Homo sapiens, UniProt P05177).
T2 construct: from tissue; host or cells: human liver microsomes
T2 sequence (P05177 1-516): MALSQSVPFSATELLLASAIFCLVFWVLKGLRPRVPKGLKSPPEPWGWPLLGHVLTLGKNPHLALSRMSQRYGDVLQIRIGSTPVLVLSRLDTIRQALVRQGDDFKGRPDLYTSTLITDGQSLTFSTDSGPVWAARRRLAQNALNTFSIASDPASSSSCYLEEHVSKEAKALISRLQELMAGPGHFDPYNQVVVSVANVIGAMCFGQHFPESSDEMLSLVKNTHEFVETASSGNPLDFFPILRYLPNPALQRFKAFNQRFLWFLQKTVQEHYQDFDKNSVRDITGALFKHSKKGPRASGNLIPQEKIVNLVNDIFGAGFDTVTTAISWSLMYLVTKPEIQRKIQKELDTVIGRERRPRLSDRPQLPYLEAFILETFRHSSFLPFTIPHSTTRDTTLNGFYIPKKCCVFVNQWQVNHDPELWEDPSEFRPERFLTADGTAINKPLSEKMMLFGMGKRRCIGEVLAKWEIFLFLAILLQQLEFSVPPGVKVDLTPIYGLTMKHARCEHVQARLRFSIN
Kind of assay: In vitro CYP enzyme inhibition, human liver microsomes. It counts as in vitro ADME. The settings on record: probe Phenacetin, single point method. The method, then: (§1) Human liver microsome incubation system was used to reflect the activity of enzymes based on the amount of metabolites produced. Enzyme inhibition of the test compounds was investigated on CYP1A2, CYP2C9, […], CYP3A4m, CYP3A4t and CYP2C19, and IC50 values (a concentration of the test compound that is required for 50% inhibition of enzyme activity) were measured. […] The appropriate amount of test compound standard sample was weighed, and diluted with DMSO to 50 mM to obtain stock solution I. The stock solution I was diluted with PBS to 100 μM to obtain the reaction liquid which is to be used in incubation. [table] The reaction mixture was prepared: 60 μL [table] The above mixture was preincubated for 5 minutes at 37° C., followed by addition of 40 μL of NADPH (2.5 mM, PBS formulation). The mixture solution was incubated for 20 minutes at 37° C. All incubated samples were set to double samples. 300 μL ice-cold acetonitrile was added to terminate the reaction. The reaction solution was added with 100 μl internal standard, mixed uniformly, and centrifuged for 10 minutes at 3500 rpm. The supernatant was transferred to the LC-MS/MS analysis. The activity of enzymes was reflected by the production amount of metabolites. Using a single point method, the formula was calculated as follows: According to the known literature: IC50>10 μM belongs to weaker inhibition, 1 μM<IC50<10 μM belong to moderate inhibition, IC50<1 μM belong to strong inhibition.

For assay [4], the target named is T3, CYP2C19 (Homo sapiens, UniProt P33261).
T3 construct: from tissue; host or cells: human liver microsomes
T3 sequence (P33261 whole entry): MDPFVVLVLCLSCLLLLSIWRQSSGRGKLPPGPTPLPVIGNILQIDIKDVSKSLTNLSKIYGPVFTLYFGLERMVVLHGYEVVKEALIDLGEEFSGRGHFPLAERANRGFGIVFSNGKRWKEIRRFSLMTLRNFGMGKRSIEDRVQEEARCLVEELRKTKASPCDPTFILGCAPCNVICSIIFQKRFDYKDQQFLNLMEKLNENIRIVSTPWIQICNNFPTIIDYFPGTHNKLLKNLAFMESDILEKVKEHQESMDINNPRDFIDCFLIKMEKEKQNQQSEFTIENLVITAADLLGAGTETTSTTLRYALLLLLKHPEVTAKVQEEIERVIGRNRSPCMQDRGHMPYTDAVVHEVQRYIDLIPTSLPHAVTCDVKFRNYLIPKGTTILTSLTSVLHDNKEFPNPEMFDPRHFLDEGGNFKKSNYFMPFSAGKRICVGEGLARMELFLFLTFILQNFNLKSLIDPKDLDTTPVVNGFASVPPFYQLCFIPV
The description is as above. The assay is classed as in vitro ADME. The settings on record: probe (S)-Mephenytoin, single point method. The method, then:
as §1

Assay [5] addresses CYP2C6 (Homo sapiens, UniProt P10635). The description is as above. The settings on record: single point method. It counts as in vitro ADME. The method, then: as §1
Assay [6] addresses T4, CYP2C9 (Homo sapiens, UniProt P11712).
T4 construct: from tissue; host or cells: human liver microsomes
The assay is described as above. The assay is classed as in vitro ADME. The note with it: probe Diclofenac, single point method. On the procedure:
as §1

Assay [7] deals with T5, CYP3A4m (Homo sapiens, UniProt P08684).
T5 construct: from tissue; host or cells: human liver microsomes
T5 sequence (P08684 whole entry): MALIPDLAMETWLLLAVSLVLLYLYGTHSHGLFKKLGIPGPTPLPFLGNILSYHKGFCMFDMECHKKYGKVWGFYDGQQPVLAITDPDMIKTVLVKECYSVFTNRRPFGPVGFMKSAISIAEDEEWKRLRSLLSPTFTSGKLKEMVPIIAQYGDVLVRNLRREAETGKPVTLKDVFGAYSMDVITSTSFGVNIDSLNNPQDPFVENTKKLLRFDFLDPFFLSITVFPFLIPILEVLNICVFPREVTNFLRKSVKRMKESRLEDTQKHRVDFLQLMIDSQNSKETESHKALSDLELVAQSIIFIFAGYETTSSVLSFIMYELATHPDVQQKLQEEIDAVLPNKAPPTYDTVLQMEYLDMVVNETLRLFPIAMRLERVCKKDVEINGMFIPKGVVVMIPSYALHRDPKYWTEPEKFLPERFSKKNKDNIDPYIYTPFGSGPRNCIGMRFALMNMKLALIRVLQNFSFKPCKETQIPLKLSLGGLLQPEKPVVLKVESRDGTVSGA
The assay is described as above. The note with it: probe Midazolam, single point method. It counts as in vitro ADME. On the procedure: as §1

Assay [8] has as its target T6, CYP3A4t (Homo sapiens, UniProt P08684).
T6 construct: from tissue; host or cells: human liver microsomes
The description is as above. The settings on record: probe Testosterone, single point method. It counts as in vitro ADME. The method, then: as §1

T1 sequence (Q02750 whole entry): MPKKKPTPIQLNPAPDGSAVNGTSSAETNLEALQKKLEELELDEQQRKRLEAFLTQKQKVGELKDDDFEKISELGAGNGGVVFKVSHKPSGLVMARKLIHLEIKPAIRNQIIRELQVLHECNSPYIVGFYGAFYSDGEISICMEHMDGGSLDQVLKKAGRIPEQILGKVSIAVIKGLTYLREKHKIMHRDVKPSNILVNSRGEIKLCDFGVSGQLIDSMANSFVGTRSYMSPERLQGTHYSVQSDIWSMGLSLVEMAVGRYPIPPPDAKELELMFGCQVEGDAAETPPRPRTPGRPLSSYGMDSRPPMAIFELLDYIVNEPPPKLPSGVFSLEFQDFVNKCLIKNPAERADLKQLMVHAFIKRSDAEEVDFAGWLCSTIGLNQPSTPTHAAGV
T6 sequence (P08684 whole entry): as the sequence (P08684 whole entry) above
T4 sequence (P11712 whole entry): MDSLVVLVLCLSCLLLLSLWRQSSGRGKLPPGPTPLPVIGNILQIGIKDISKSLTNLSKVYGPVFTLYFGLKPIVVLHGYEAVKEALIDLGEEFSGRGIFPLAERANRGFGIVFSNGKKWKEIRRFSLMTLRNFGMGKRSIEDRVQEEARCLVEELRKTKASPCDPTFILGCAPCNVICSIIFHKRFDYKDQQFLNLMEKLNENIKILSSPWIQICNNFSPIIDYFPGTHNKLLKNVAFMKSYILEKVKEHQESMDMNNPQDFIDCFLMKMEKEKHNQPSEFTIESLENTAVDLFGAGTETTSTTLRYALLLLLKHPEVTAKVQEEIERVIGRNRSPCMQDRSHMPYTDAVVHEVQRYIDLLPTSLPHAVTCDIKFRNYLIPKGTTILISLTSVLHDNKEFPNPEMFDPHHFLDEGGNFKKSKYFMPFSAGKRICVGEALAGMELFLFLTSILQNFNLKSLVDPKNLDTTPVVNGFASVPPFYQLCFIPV
CYP2C6, sequence (P10635 whole entry): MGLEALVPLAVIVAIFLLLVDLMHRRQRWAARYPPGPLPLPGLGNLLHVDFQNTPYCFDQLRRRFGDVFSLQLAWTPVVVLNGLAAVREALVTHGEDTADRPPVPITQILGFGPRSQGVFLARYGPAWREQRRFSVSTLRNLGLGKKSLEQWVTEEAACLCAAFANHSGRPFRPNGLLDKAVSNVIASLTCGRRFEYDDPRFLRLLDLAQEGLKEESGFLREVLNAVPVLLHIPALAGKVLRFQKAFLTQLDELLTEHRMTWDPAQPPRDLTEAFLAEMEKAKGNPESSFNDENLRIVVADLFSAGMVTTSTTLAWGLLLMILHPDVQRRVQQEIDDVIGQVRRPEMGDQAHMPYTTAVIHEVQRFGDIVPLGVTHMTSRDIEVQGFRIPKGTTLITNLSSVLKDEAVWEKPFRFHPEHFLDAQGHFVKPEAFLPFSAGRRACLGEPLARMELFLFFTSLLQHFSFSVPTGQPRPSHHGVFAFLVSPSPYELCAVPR

Usually IC50 stands for the midpoint of a concentration-inhibition curve. For the compound `CC(=O)Nc1cccc(Oc2cc(=O)n(C)c(Nc3ccc(I)cc3F)c2C(N)=O)c1C` [Example 4, 4-(3-acetamido-2-methylphenoxy)-2-((2-fluoro-4-iodophenyl)amino)-1-methyl-6-oxo-1,6-dihydropyridine-3-carboxamide], the IC50 is 4 nM in assay [1]; 0.8 nM in assay [2]; above 10000 nM in assay [3]; above 10000 nM in assay [4]; above 50000 nM in assay [5]; above 50000 nM in assay [6]. In addition, the IC50 in assay [7] and in assay [8] was above 50000 nM each time.
For the compound `Cc1cncc(Oc2cc(=O)n(C)c(Nc3ccc(I)cc3F)c2C(N)=O)c1` [Example 30, 2-((2-fluoro-4-iodophenyl)amino)-1-methyl-4-((5-methylpyridin-3-yl)oxy)-6-oxo-1,6-dihydropyridine-3-carboxamide], the IC50 in assay [1] was 6 nM; in assay [3], above 10000 nM; in assay [4], above 10000 nM; in assay [5], above 10000 nM; in assay [6] it was above 10000 nM; in assay [7] it was above 10000 nM. The compound further gave an IC50 in assay [8] above 10000 nM.
As to `Cc1ccc(Oc2cc(=O)n(C)c(Nc3ccc(I)cc3F)c2C(N)=O)c(Cl)c1` [Example 15, 4-(2-chloro-4-methylphenoxy)-2-((2-fluoro-4-iodophenyl)amino)-1-methyl-6-oxo-1,6-dihydropyridine-3-carboxamide], the IC50 stood at 8.2 nM in assay [1] and 10.2 nM in assay [2].
In the same order, the values of `Cc1ccc(F)cc1Oc1cc(=O)n(C)c(Nc2ccc(I)cc2F)c1C(N)=O` [Example 25, 4-(5-fluoro-2-methylphenoxy)-2-((2-fluoro-4-iodophenyl)amino)-1-methyl-6-oxo-1,6-dihydropyridine-3-carboxamide] are 5.9 nM and 1 nM.
As for `Cc1cccc(Oc2cc(=O)n(C)c(Nc3ccc(I)cc3F)c2C(N)=O)c1C` [Example 18, 4-(2,3-dimethylphenoxy)-2-((2-fluoro-4-iodophenyl)amino)-1-methyl-6-oxo-1,6-dihydropyridine-3-carboxamide], the IC50 stood at 7.9 nM in assay [1] and 1.4 nM in assay [2].
Regarding `Cc1c(NC(=O)C2CC2)cccc1Oc1cc(=O)n(C)c(Nc2ccc(I)cc2F)c1C(N)=O` [Example 7, 4-(3-(cyclopropanecarboxamido)-2-methylphenoxy)-2-((2-fluoro-4-iodophenyl)amino)-1-methyl-6-oxo-1,6-dihydropyridine-3-carboxamide], the IC50 in assay [1] was 5.5 nM; in assay [2], 0.4 nM.
